The text below walks through data of patent US20250340570A1, “COMPOSITIONS USEFUL FOR MODULATING SPLICING” (Skyhawk Therapeutics, Inc., priority 2022, published 2025).

One assay concerns total ATXN3 protein. The assay can be described thus: ATXN3 total protein assay (Mesoscale Discovery). It is filed as cell-based. Particulars: Human neuroblastoma SK-N-MC cells, 48 hours incubation, MSD assay. The method, then:
Human neuroblastoma SK-N-MC cells were seeded at 10,000 cells/well in 384 well plates one day prior to compound treatment. The concentrations of compounds were tested at appropriate doses ranging from 30 µM to 0.6 nM. After incubation for 48 hours, the cells were lysed with 25.L of lysis buffer containing protease inhibitors, and total ATXN3 protein levels were assessed by Mesoscale Discovery (MSD) assay developed with one pair of and-ATXN3 antibodies. The capture and detect antibodies were raised in mouse and rabbit respectively. Anti-rabbit MSD-ST antibody was used for secondary antibody.
ATXN3 recombinant protein was used for standards. The readouts were captured with 35.L of MSD read buffer and multi-array 384-well high binding plates.

The test system of assay [1] is ATXN3 transcripts containing exon 4. The assay can be described thus: ATXN3 quantitative splicing assay (qPCR, E4E5 transcripts containing exon 4). To be noted: Human neuroblastoma SK-N-MC cells, 24 h treatment, qPCR primers/probe E4E5. In kind it is cell-based. The method, then: Human neuroblastoma SK-N-MC cells were plated in 384-well plates at 20,000 cells/well. Twenty-four hours after plating, cells were treated with compounds for 24 h at appropriate concentrations ranging from 30 μM to 0.6 nM (0.3% DMSO). Treated cells were lysed in 15 μL of lysis buffer, and cDNA was synthesized using the Fast Advanced Cells-to-Ct kit. Two μL of each cDNA was used in qPCR reactions to confirm the exon 4 skipped transcripts of ATXN3. A second set of primers/probe E4E5 was used to detect the transcripts containing exon 4. The third set of primers/probe E8E9 was used to detect total gene level of ATXN3. The qPCR reactions were prepared in 384-well plates in 10.L volume, using TaqMan™ Fast Advanced Master Mix with primers and probes shown in the table below. Reactions were run in a Quant Studio 6 qPCR instrument with default settings.
The primers and probes are listed below in Table 5.

With `C[C@H](N)Cc1sc2c(NCc3cccs3)snc2c1-c1ccccc1` [Compound 128, 7-[(S)-2-aminopropyl]-8-phenyl-4-thenylamino-3,6-dithia-2-azabicyclo[3.3.0]octa-1,4,7-triene], the IC50 (in the assay with total ATXN3 protein; in assay [1]) was 10 to 40 µM each time.
As for `COC[C@H](N)Cc1sc2c(NCc3cccs3)snc2c1Cl` [Compound 44, 7-[(R)-2-amino-3-methoxypropyl]-8-chloro-4-thenylamino-3,6-dithia-2-azabicyclo[3.3.0]octa-1,4,7-triene], the results for the IC50 (in the assay on total ATXN3 protein; in assay [1]) were 0.501 to 5 µM and 5 to 10 µM, respectively.
In the same order, the values of `Cc1c(C[C@H](C)N)sc2c(NCc3ccccc3)snc12` [Compound 5, 7-[(S)-2-aminopropyl]-4-benzylamino-8-methyl-3,6-dithia-2-azabicyclo[3.3.0]octa-1,4,7-triene] are 0.501 to 5 µM and 5 to 10 µM.
On to `COc1c(C[C@H](C)N)sc2c(NCc3ccco3)snc12` [Compound 26, 5-[(2S)-2-aminopropyl]-N-(furan-2-ylmethyl)-6-methoxythieno[3,2-c][1,2]thiazol-3-amine], for which the IC50 (in the assay with total ATXN3 protein; in assay [1]) was 5 to 10 µM throughout.
Turning to `Cc1c(C[C@@H](N)C2CC(F)(F)C2)sc2c(NCc3cccs3)snc12` [Compound 84, 7-[(R)-2-amino-2-(3,3-difluorocyclobutyl)eth-yl]-8-methyl-4-thenylamino-3,6-dithia-2-azabicyclo[3.3.0]octa-1,4,7-triene], the results for the half-inhibitory concentration (IC50) (with total ATXN3 protein; in assay [1]) were 5 to 10 µM and 0.501 to 5 µM, respectively.
For `C[C@H](F)[C@H](N)Cc1sc2c(NCc3nccs3)snc2c1Br` [Compound 105, 7-[(2R,3S)-2-amino-3-fluorobutyl]-8-bromo-4-{[(1,3-thiazol-2-yl)methyl]amino}-3,6-dithia-2-azabicyclo[3.3.0]octa-1,4,7-triene], the concentration for half-maximal inhibition (IC50) (with total ATXN3 protein; in assay [1]) was 0.101 to 0.5 µM in each case.
With `C[C@H](N)Cc1sc2c(NCc3ccco3)snc2c1Cl` [Compound 23, 7-[(S)-2-aminopropyl]-8-chloro-4-(furfurylamino)-3,6-dithia-2-azabicyclo[3.3.0]octa-1,4,7-triene], the IC50 (in the assay with total ATXN3 protein; in assay [1]) was 0.101 to 0.5 µM in each case.
Regarding `COc1c(C[C@H](C)N)sc2c(NCc3cccs3)snc12` [Compound 28, 7-[(S)-2-aminopropyl]-8-methoxy-4-thenylamino-3,6-dithia-2-azabicyclo[3.3.0]octa-1,4,7-triene], the IC50 in the assay with total ATXN3 protein was in the range of 10 to 40 µM; in assay [1], 5 to 10 µM.
As for `N[C@@H](CF)Cc1sc2c(NCc3cccs3)snc2c1Cl` [Compound 47, 7-[(R)-2-amino-3-fluoropropyl]-8-chloro-4-thenylamino-3,6-dithia-2-azabicyclo[3.3.0]octa-1,4,7-triene], the IC50 (with total ATXN3 protein; in assay [1]) was 0.101 to 0.5 µM throughout.
Turning to `C[C@H](F)[C@H](N)Cc1sc2c(NCc3sccc3F)snc2c1Cl` [Compound 95, 7-[(2R,3S)-2-amino-3-fluorobutyl]-8-chloro-4-{[(3-fluoro-2-thienyl)methyl]amino}-3,6-dithia-2-azabicyclo[3.3.0]octa-1,4,7-triene], the IC50 (in the assay on total ATXN3 protein; in assay [1]) was 0.501 to 5 µM each time.
Turning to `Cc1c(C[C@@H](N)c2ccccc2)sc2c(NCc3cccs3)snc12` [Compound 71, 7-[(R)-2-amino-2-phenylethyl]-8-methyl-4-thenylamino-3,6-dithia-2-azabicyclo[3.3.0]octa-1,4,7-triene], the IC50 lay in the range of 5 to 10 µM with total ATXN3 protein and 10 to 40 µM in assay [1].
Take `COC(c1sc2c(NCc3cccs3)snc2c1Br)[C@H](C)N` (stereo partly drawn) [Compound 114, 5-[(2S)-2-amino-1-methoxypropyl]-6-bromo-N-(thiophen-2-ylmethyl)thieno[3,2-c][1,2]thiazol-3-amine]: the IC50 (in the assay on total ATXN3 protein; in assay [1]) was 10 to 40 µM each time.
On to `C[C@H](F)[C@H](N)Cc1sc2c(NCc3ccc(F)s3)snc2c1Cl` [Compound 96, 7-[(2R,3S)-2-amino-3-fluorobutyl]-8-chloro-4-{[(5-fluoro-2-thienyl)methyl]amino}-3,6-dithia-2-azabicyclo[3.3.0]octa-1,4,7-triene], for which the concentration for half-maximal inhibition (IC50) in the assay on total ATXN3 protein fell in the range of 5 to 10 µM; in assay [1] it was 0.501 to 5 µM.
In the same order, the values of `C[C@H](N)Cc1sc2c(NCc3cccs3)snc2c1C#N` [Compound 19, 7-[(S)-2-aminopropyl]-4-thenylamino-3,6-dithia-2-azabicyclo[3.3.0]octa-1,4,7-triene-8-carbonitrile] are 0.501 to 5 µM and 0.501 to 5 µM.
For the molecule `CC(=O)N[C@@H](C)Cc1sc2c(NCc3cccs3)snc2c1C` [Compound 79, N-[(2S)-1-{6-methyl-3-[(thiophen-2-ylmethyl)amino]thieno[3,2-c][1,2]thiazol-5-yl}propan-2-yl]acetamide], the IC50 (with total ATXN3 protein; in assay [1]) was 10 to 40 µM in each case.
Regarding `C[C@H](F)[C@H](N)Cc1sc2c(NCc3cccs3)snc2c1Cl` [Compound 74, 7-[(2R,3S)-2-amino-3-fluorobutyl]-8-chloro-4-thenylamino-3,6-dithia-2-azabicyclo[3.3.0]octa-1,4,7-triene], the IC50 (with total ATXN3 protein; in assay [1]) was 0.101 to 0.5 µM each time.
With `FC(F)(F)c1csc2c(NCc3ccco3)snc12` [Compound 82, (furfuryl){8-(trifluoromethyl)-3,6-dithia-2-azabicyclo[3.3.0]octa-1,4,7-trien-4-yl}amine], the concentration for half-maximal inhibition (IC50) (in the assay on total ATXN3 protein; in assay [1]) was 10 to 40 µM in each case.
For the molecule `N[C@@H](CF)Cc1sc2c(NCc3ccco3)snc2c1Cl` [Compound 48, 7-[(R)-2-amino-3-fluoropropyl]-8-chloro-4-(furfurylamino)-3,6-dithia-2-azabicyclo[3.3.0]octa-1,4,7-triene], the half-maximal inhibitory concentration (IC50) (with total ATXN3 protein; in assay [1]) was 0.101 to 0.5 µM each time.
As to `N[C@H](Cc1sc2c(NCc3cccs3)snc2c1Cl)CC1CC1` [Compound 58, 7-[(S)-2-amino-3-cyclopropylpropyl]-8-chloro-4-thenylamino-3,6-dithia-2-azabicyclo[3.3.0]octa-1,4,7-triene], the IC50 (in the assay on total ATXN3 protein; in assay [1]) was 0.501 to 5 µM each time.
With `Cc1c(C[C@H](C)N)sc2c(NCc3cccs3)snc12` [Compound 7, 7-[(S)-2-aminopropyl]-8-methyl-4-thenylamino-3,6-dithia-2-azabicyclo[3.3.0]octa-1,4,7-triene], the concentration for half-maximal inhibition (IC50) (in the assay with total ATXN3 protein; in assay [1]) was 0.501 to 5 µM throughout.
Turning to `C[C@H](N)Cc1sc2c(NCc3cccs3)snc2c1Br` [Compound 18, 7-[(S)-2-aminopropyl]-8-bromo-4-thenylamino-3,6-dithia-2-azabicyclo[3.3.0]octa-1,4,7-triene], the half-inhibitory concentration (IC50) (in the assay on total ATXN3 protein; in assay [1]) was 0.101 to 0.5 µM each time.
On to `N[C@@H](CO)Cc1sc2c(NCc3cccs3)snc2c1Br` [Compound 59, (R)-2-amino-3-(8-bromo-4-thenylamino-3,6-dithia-2-azabicyclo[3.3.0]octa-1,4,7-trien-7-yl)-1-propanol], for which the IC50 (with total ATXN3 protein; in assay [1]) was 0.101 to 0.5 µM each time.
As to `C[C@H](N)C(O)c1sc2c(NCc3cccs3)snc2c1Br` (stereo partly drawn) [Compound 103, (2S)-2-amino-1-{6-bromo-3-[(thiophen-2-ylmethyl)amino]thieno[3,2-c][1,2]thiazol-5-yl}propan-1-ol], the IC50 (in the assay with total ATXN3 protein; in assay [1]) was 10 to 40 µM each time.
Consider `N[C@H](Cc1sc2c(NCc3cccs3)snc2c1Cl)CC(F)(F)F` [Compound 38, 7-[(S)-2-amino-4,4,4-trifluorobutyl]-8-chloro-4-thenylamino-3,6-dithia-2-azabicyclo[3.3.0]octa-1,4,7-triene], for which the IC50 (with total ATXN3 protein; in assay [1]) was 0.501 to 5 µM in each case.
`Cc1c(C[C@@H](N)CF)sc2c(NCc3cccs3)snc12` [Compound 10, 7-[(R)-2-amino-3-fluoropropyl]-8-methyl-4-thenylamino-3,6-dithia-2-azabicyclo[3.3.0]octa-1,4,7-triene]: the 50% inhibitory concentration (IC50) (with total ATXN3 protein; in assay [1]) was 0.501 to 5 µM each time.
As for `C[C@H](N)Cc1cc2nsc(NCc3cccs3)c2s1` [Compound 66, 5-[(2S)-2-aminopropyl]-N-(thiophen-2-ylmethyl)thieno[3,2-c][1,2]thiazol-3-amine], the IC50 (in the assay with total ATXN3 protein; in assay [1]) was 10 to 40 µM throughout.
`N[C@H](Cc1sc2c(NCc3cccs3)snc2c1Cl)C(F)F` [Compound 42, 7-[(R)-2-amino-3,3-difluoropropyl]-8-chloro-4-thenylamino-3,6-dithia-2-azabicyclo[3.3.0]octa-1,4,7-triene]: the IC50 (in the assay with total ATXN3 protein; in assay [1]) was 0.501 to 5 µM each time.
In the case of `COC[C@H](N)Cc1sc2c(NCc3cccs3)snc2c1Br` [Compound 62, 7-[(R)-2-amino-3-methoxypropyl]-8-bromo-4-thenylamino-3,6-dithia-2-azabicyclo[3.3.0]octa-1,4,7-triene], the half-inhibitory concentration (IC50) in the assay with total ATXN3 protein lay in the range of 0.501 to 5 µM; in assay [1], 0.101 to 0.5 µM.
With `C[C@H](N)Cc1sc2c(NCc3cccs3)snc2c1C(F)(F)F` [Compound 35, 7-[(S)-2-aminopropyl]-4-thenylamino-8-(trifluoromethyl)-3,6-dithia-2-azabicyclo[3.3.0]octa-1,4,7-triene], the IC50 (in the assay on total ATXN3 protein; in assay [1]) was 0.501 to 5 µM throughout.

Broadly, the IC50 is the point on the concentration scale where inhibition reaches its midpoint. Higher therefore signals weaker potency.
